Reference: ChEMBL document CHEMBL1155060, “Discovery of brain penetrant, soluble, pyrazole amide EP1 receptor antagonists” (Bioorg Med Chem Lett, 2008)

The compounds below were run against T1, Prostaglandin E2 receptor EP1 subtype (Homo sapiens, UniProt P34995) (assay: Displacement of [H3PGE2 from human EP1 receptor expressed in CHOK1 cells).
T1 sequence (P34995 whole entry): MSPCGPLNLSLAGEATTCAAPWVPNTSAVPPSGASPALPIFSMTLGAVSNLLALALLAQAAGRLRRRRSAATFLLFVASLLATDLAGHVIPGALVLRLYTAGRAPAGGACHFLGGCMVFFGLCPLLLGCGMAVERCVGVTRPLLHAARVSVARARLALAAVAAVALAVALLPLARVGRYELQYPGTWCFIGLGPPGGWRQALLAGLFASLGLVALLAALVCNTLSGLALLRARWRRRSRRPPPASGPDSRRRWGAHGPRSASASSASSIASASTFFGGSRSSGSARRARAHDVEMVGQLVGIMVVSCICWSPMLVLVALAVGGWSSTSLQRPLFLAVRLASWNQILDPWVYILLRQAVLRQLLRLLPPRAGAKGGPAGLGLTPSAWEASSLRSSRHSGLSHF
Assay type: cell-based, CHO-K1

SMILES | IC50
Cc1cc(C(=O)Nc2ccc(CN3CCCC3)cc2)nn1Cc1cc(Cl)ccc1OCc1ccccc1 | 12.6 nM
Cc1cc(NC(=O)c2ccccc2CO)nn1Cc1cc(Cl)ccc1OCC(C)C | 25.1 nM
CCNCc1ccc(NC(=O)c2cc(C)n(Cc3cc(Cl)ccc3OCc3ccccc3)n2)cc1 | 12.6 nM
Cc1cc(C(=O)Nc2ccc(CN(C)C)cc2)nn1Cc1cc(Cl)ccc1OCc1ccccc1 | 7.94 nM
Cc1cc(NC(=O)c2cccc(CN(C)C)c2)nn1Cc1cc(Cl)ccc1OCC(C)C | 631 nM
Cc1cc(NC(=O)c2cccc(CN3CCCC3)c2)nn1Cc1cc(Cl)ccc1OCC(C)C | 126 nM
Cc1cc(NC(=O)c2ccc(CN(C)C)cc2)nn1Cc1cc(Cl)ccc1OCC(C)C | 100 nM
Cc1cc(NC(=O)c2cccc(CN3CCCCC3)c2)nn1Cc1cc(Cl)ccc1OCC(C)C | 501 nM
Cc1cc(C(=O)Nc2ccc(CN(C)C)cc2)nn1Cc1cc(Cl)ccc1OCC(C)C | 5.01 nM
Cc1cc(NC(=O)c2ccc3c(c2)CCN(C(C)C)C3)nn1Cc1cc(Cl)ccc1OCC(C)C | 100 nM
Cc1cc(NC(=O)c2ccc(C(C)NCC(C)C)cc2)nn1Cc1cc(Cl)ccc1OCC(C)C (centres undefined) | 50.1 nM
Cc1cc(NC(=O)c2ccc(C(C)N3CCCC3)cc2)nn1Cc1cc(Cl)ccc1OCC(C)C (centres undefined) | 50.1 nM
Cc1cc(C(=O)Nc2ccc(CN3CCCC3)cc2)nn1Cc1cc(Cl)ccc1OCC(C)C | 6.31 nM
Cc1cc(NC(=O)c2ccc3c(c2)CCNCC3)nn1Cc1cc(Cl)ccc1OCC(C)C | 79.4 nM
Cc1cc(C(=O)Nc2ccc(CO)cc2)nn1Cc1cc(Cl)ccc1OCC(C)C | 31.6 nM
CCNCc1cccc(C(=O)Nc2cc(C)n(Cc3cc(Cl)ccc3OCC(C)C)n2)c1 | 501 nM
Cc1cc(NC(=O)c2cccc(CN3CCOCC3)c2)nn1Cc1cc(Cl)ccc1OCC(C)C | 251 nM
Cc1cc(NC(=O)c2ccc(CN3CCOCC3)cc2)nn1Cc1cc(Cl)ccc1OCC(C)C | 50.1 nM
Cc1cc(C(=O)Nc2ccc(CN3CCOCC3)cc2)nn1Cc1cc(Cl)ccc1OCC(C)C | 7.94 nM
